Data published in PMC5325326, “Evaluation of the intestinal permeability of rosemary (Rosmarinus officinalis L.) extract polyphenols and terpenoids in Caco-2 cell monolayers” (PLoS ONE, 2017).
Entries after “also recorded” stand apart in the source; their conditions may differ. Read-outs that look alike come from different tables or passages of the source.

What was measured:
in vitro = conditions: human, Caco-2, pH 7.4
Caco-2 cell monolayers [1] = test system: Caco-2 cell monolayers
[2] = Caco-2 monolayer transport study (apparent permeability, Papp) of rosemary extract compounds; conditions: human, Caco-2, pH 7.4
[3] = BCS classification based on experimental Papp (AB direction, free formulation); assay type: in vitro ADME; set-up: dose or concentration left out as unconfirmed; conditions: human, Caco-2, pH 7.4, versus metoprolol Papp, Table 2, read-out: Permeability Based on Papp
Excerpt: The Biopharmaceutical Classification System (BCS) was developed by Amidon and coworkers twenty years ago to classify drugs for a waiver of in vivo bioequivalence studies. This system classifies drugs into four categories based on their intestinal permeability and solubility (see S1 Table), and currently this system is accepted worldwide by researchers and governmental institutions such as the FDA and EMA. In addition to its regulatory use, BCS is a tool for drug development because it helps identify the limiting factors in the absorption process. In this work, the 24 compounds identified from RE were classified individually according to this system to obtain relevant information regarding their absorbed oral fraction. For this purpose, only data derived from the free extract permeation were used.
Log P values were obtained for all compounds using ChemDraw software® Ultra version 8.0 (CambridgeSoft Corp. USA) and are shown in Table 2. The Log P value is a widely accepted parameter to express the lipophilicities of biological drugs in medicinal and agro chemistry. According to BCS, compounds are divided into high permeability (Class I: high permeability, high solubility; Class II: high permeability, low solubility) or low permeability (Class III: low permeability, high solubility; Class IV: low permeability, low solubility) categories by comparing with the Log P value (2.18) of the standard metoprolol, which is the reference compound employed for this purpose. Based on this parameter, the permeabilities of all compounds derived from RE were tabulated as high or low (Table 2). Moreover, the Papp value of this reference drug (0.6 x 10^−4 cm/s) was also available, which allowed us to establish another classification for the permeabilities of RE compounds based on this parameter, using the Papp values of the compounds obtained in the AB direction only for the free formulations (Table 2). Therefore, the Log P and Papp values were used in Table 2 to classify compounds as […] drugs for permeability, providing two different classifications based on the partition coefficient and the intestinal permeability.
As no information was available regarding the maximum doses of these compounds, two putative scenarios were selected to simulate a high-activity drug, dosed as a 10-mg tablet, or a low-activity drug, dosed as a 100-mg tablet. […] In the present study, all compounds were classified for BCS by considering the experimental data for absorption (Papp) and the calculated Log P value (Table 2). According to the Log P value, most compounds belong to the high-permeability classes (I and II), with class II being the most numerous (Fig 2A), except in the case of the flavonoids. However, when experimental Papp values were used for classification, the results changed dramatically, and low-permeability classes (III and IV) became the most abundant (Fig 2B). This classification was nearly independent of the solubility scenario and considered dose (compare Fig 2 and S1 Fig). […] Most flavones in RE were classified as class III (low permeability, high solubility) and class IV (low permeability, low solubility) with the exception of apigenin, for which no experimental Papp could be determined and, consequently, no BCS classification was proposed. […] The phenylpropanoid derivatives shogaol and shogaol isomer (gingerol-like compounds) were classified as class II (high permeability, low solubility), which is in agreement with the presence of a long saturated carbon chain in their structure that confers a certain degree of hydrophobicity to these compounds.

Caco-2 cell monolayers [4] = test system: Caco-2 cell monolayers; set-up: method as in printed; conditions: reference for BCS permeability class; stated as available, ref not given; cited from earlier work
Caco-2 cell monolayers [5] = test: Caco-2 monolayer transport study (apparent permeability, Papp) of rosemary extract compounds; conditions: for Papp, Encapsulated RE, AB direction: liposomal RE formulation; for Papp, Encapsulated RE, AB direction / Papp, Non encapsulated RE, AB direction: apical to basolateral; for retention by Caco-2 cells: free formulation, AB direction
[6] = 120 min, 37°C, mean of six replicates
[7] = free RE 200 μg/mL, 120 min, 37°C, mean of six replicates

Row | Molecule | Papp A→B at 120 min, 200 μg/mL [2] [nm/s] | Papp B→A at 120 min, 200 μg/mL [2] [nm/s] | Papp at 120 min [3] [nm/s] | also measured
1 | CC(C)c1cc2c(cc1O)[C@@]1(C)CCC(=O)C(C)(C)[C@@H]1CC2 [Hinokione] |  |  |  | Papp B→A at 120 min, 200 μg/mL (in vitro): 136 nm/s; Papp, Encapsulated RE, AB direction (Caco-2 cell monolayers [1]): no absorption; Papp, Non encapsulated RE, AB direction (Caco-2 cell monolayers [1]): no absorption
2 | C=C1CCC2(C(=O)O)CCC3(C)C(=CCC4C5(C)CCC(O)C(C)(C)C5CCC43C)C2C1C (centres unmarked) [Micromeric acid] | 72 | 24.5 | < 600 | 
3 | CC(C)c1cc2c(c(O)c1O)[C@@]13CCCC(C)(C)[C@@H]1[C@H](O)[C@@H]2OC3=O [Epiisorosmanol] | 1040 | 92.3 | > 600 | Papp A→B at 120 min [2]: 81.8 nm/s; Papp B→A at 120 min [2]: 130 nm/s
4 | CC(C)c1cc2c(c(O)c1O)C13CCCC(C)(C)C1C(OC3=O)C2O (centres unmarked) [Epirosmanol] | 551 | 121 | < 600 | Papp A→B at 120 min [2]: 19.2 nm/s; Papp B→A at 120 min [2]: 26.3 nm/s
5 | COCCc1ccc(OCC(O)CNC(C)C)cc1 (centres unmarked) [metoprolol] |  |  |  | Papp value of the reference drug (Caco-2 cell monolayers [4]): 600 nm/s
6 | CC(C)c1cc2c(c(O)c1O)[C@@]13CCCC(C)(C)[C@@H]1C[C@@H]2OC3=O [Carnosol] | 146 | 135 | < 600 | Papp A→B at 120 min [2]: 0.403 nm/s; Papp B→A at 120 min [2]: 2.61 nm/s
7 | COc1c(O)cc2oc(-c3ccc(O)cc3)cc(=O)c2c1O [Hispidulin] | 90.5 | 131 | < 600 | 
8 | CC(C)c1cc2c(c(O)c1O)[C@@]13CCCC(C)(C)[C@@H]1[C@H](OC3=O)[C@H]2O [Rosmanol] | 459 | 442 | < 600 | Papp A→B at 120 min [2]: 291 nm/s; Papp B→A at 120 min [2]: 333 nm/s
9 | Cc1cc2c(cc(O)c1=O)[C@@]13CCCC(C)(C)[C@@H]1C[C@@H]2OC3 [Miltipolone] | 176 |  | < 600 | Papp B→A at 120 min [2]: 1.68 nm/s; Papp, Non encapsulated RE, BA direction (Caco-2 cell monolayers [5]; free RE 200 μg/mL, basolateral to apical, 120 min, 37°C, mean of six replicates): not absorbed; also recorded: no absorption; Papp, Encapsulated RE, AB direction (Caco-2 cell monolayers [5]; [6]): no absorption
10 | COc1cc2oc(-c3ccc(O)cc3)cc(=O)c2c(O)c1OC [Cirsimaritin] | 333 | 307 | < 600 | 
11 | C=C(C)[C@@H]1CC[C@]2(C(=O)O)CC[C@]3(C)[C@H](CC[C@@H]4[C@@]5(C)CC[C@H](O)C(C)(C)[C@@H]5CC[C@]43C)[C@@H]12 [Betulinic acid] |  | 63 |  | detection in donor chamber, cells and receptor chamber (Caco-2 cell monolayers [5]; encapsulated formulation): detected both in the donor chamber and also inside the cells but was not detected in the receptor chamber; Papp, Non encapsulated RE, AB direction (Caco-2 cell monolayers [5]; [7]): not absorbed; retention by Caco-2 cells (Caco-2 cell monolayers [5]): partly retained by the Caco-2 cells
12 | COc1ccc(-c2cc(=O)c3c(O)cc(O)cc3o2)cc1O [Diosmetin] | 25 | 41.3 | < 600 | 
13 | CC(C)c1cc2c(c(O)c1O)C(=O)C1CCCC(C)(C)C1CC2 (centres unmarked) [Rosmaridiphenol] | 24.3 | 26.8 | < 600 | Papp, Non encapsulated RE, AB direction (Caco-2 cell monolayers [5]; [7]): E-06 range; Papp, Encapsulated RE, AB direction (Caco-2 cell monolayers [5]; [6]): no absorption
14 | C[C@H]1[C@H](C)CC[C@]2(C(=O)O)CC[C@]3(C)C(=CC[C@@H]4[C@@]5(C)CC[C@H](O)C(C)(C)[C@@H]5CC[C@]43C)[C@H]12 [Ursolic acid] |  | 72 |  | retention by Caco-2 cells (Caco-2 cell monolayers [5]): partly retained by the Caco-2 cells
15 | COc1cc(O)c2c(=O)cc(-c3ccc(O)cc3)oc2c1 [Genkwanin] | 149 | 162 | < 600 | 
16 | CC1(C)CC[C@]2(C(=O)O)CC[C@]3(C)C(=CC[C@@H]4[C@@]5(C)C[C@H](O)[C@H](O)C(C)(C)[C@@H]5CC[C@]43C)[C@@H]2C1 [Augustic acid] | 73.5 | 79.3 | < 600 | 
17 | (9)-Shogaol [[9]-Shogaol] |  |  |  | retention by Caco-2 cells / transport to the receptor chamber (Caco-2 cell monolayers [5]; all samples, amounts below LOQ detected in cytoplasmic fractions): partly retained by Caco-2 cells without any transport to the receptor chamber
18 | CC(C)c1cc(C=O)c2c(c1O)OC(=O)[C@@]21CCCC(C)(C)[C@@H]1C=O [Rosmadial] | 190 | 159 | < 600 | Papp A→B at 120 min [2]: 26.7 nm/s; Papp B→A at 120 min [2]: 124 nm/s
19 | C=C(C)[C@@H]1CC[C@]2(C(=O)O)CC[C@]3(C)[C@H](CC[C@@H]4[C@@]5(C)CC[C@H](O)[C@@](C)(CO)[C@@H]5CC[C@]43C)[C@@H]12 [Anemosapogenin] | 32.7 | 61.7 | < 600 | 
20 | COc1c(C(C)C)cc2c(c1O)[C@@]1(C(=O)O)CCCC(C)(C)[C@@H]1CC2 [12-Methoxycarnosic acid] | 185 | 277 | < 600 | Papp, Encapsulated RE, AB direction (Caco-2 cell monolayers [5]; [6]): no absorption
21 | CC(C)c1cc2c(c(O)c1O)[C@@]1(C(=O)O)CCCC(C)(C)[C@@H]1CC2 [Carnosic acid] | 1270 | 904 |  | Papp, Encapsulated RE, AB direction (Caco-2 cell monolayers [5]; [6]): no absorption
22 | CC1CCC2(C(=O)O)CCC3(C)C(=CCC4C5(C)CCC(O)C(C)(C)C5CCC43C)C2C1(C)O (centres unmarked) [Benthamic acid] | 52 | 70.3 | < 600 | 
